Test results from patent US6979686B1, “Substituted pyrazoles as p38 kinase inhibitors” (Pharmacia Corporation, priority 2001, dated 2005).
Counter-ions that a name gives are not always drawn. Like-named read-outs stand apart in the source and are kept apart here.

Tests used:
[1] = test system: human TNF, human whole blood stimulated with LPS; assay: TNF inhibition: human whole blood assay; type: cell-based
Method: TNF Inhibition: Human Whole Blood Assay
Human peripheral blood is obtained in heparinized tubes. A 190 μL aliquot of blood is placed in each well of a 96 well u-bottom plate. […] After one hour of incubation at 37° C., […] of lipopolysaccharide (Salmonella typhosa, Sigma) in phosphate buffered saline is added resulting in a final concentration of […]. After four to five hours of incubation at 37° C., the supernatants are harvested and assayed at 1:10 or 1:20 dilutions for human TNF using ELISA.
In vitro human whole blood assay data for measuring the ability of the compounds to inhibit TNF production in human whole blood stimulated with LPS are shown in the column identified as: • “Human Whole Blood IC50, μM or %Inhib@conc. (μM)”
(§1) In vitro p38 alpha kinase inhibitory data are shown in the column identified as “p38 alpha IC50 (μM)”. In vitro human whole blood assay data for measuring the ability of the compounds to inhibit TNF production in human whole blood stimulated with LPS are shown in the column identified as: “HWB IC50 (μM)”. In vivo assessment of the ability of the compounds to inhibit LPS-stimulated TNF-release in the rat is shown in the column identified as: “ratLPS/%Inh@dose(mg/kg)”, wherein the dose is in milligram per kilogram (mg/kg) administered by oral gavage, 4 hours before LPS challenge.

[2] = test system: TNF-α, U937 human histiocytic lymphoma cell line; assay: LPS stimulation of TNF production by U937 cells; type: cell-based
Method in brief: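 U937 cells differentiated 24 h with 20 ng/ml PMA, rested 24-48 h, used at 2 million cells/ml. Compounds in 0.1% DMSO final; LPS (E. coli, 100 ng/ml final) stimulation for 4 h at 37° C. Released TNF-α measured by ELISA; IC50 (μM).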

[3] = test system: TNF alpha, BALB/c mice injected with LPS; assay: Mouse model of LPS-induced TNF alpha production; type: in vivo; conditions: for mLPS 8 h percent inhibition: Table 6, mouse LPS, head '8 h', dose 30, oral gavage; for inhibition in vivo at 30 mg/kg: Mus musculus, read-out: Mouse LPS Model % TNF inhib @ dose @ predose time; for inhibition in vivo at 30 mg/kg / Mouse LPS Model % TNF inhib @ dose @ predose time: 30 mpk oral gavage
Method: Mouse Model of LPS-induced TNF Alpha Production:
TNF alpha was induced in 10-12 week old BALB/c female mice by tail vein injection with 100 ng lipopolysaccharide (from S. Typhosa) in 0.2 ml saline. One hour later mice were bled from the retroorbital sinus and TNF concentrations in serum from clotted blood were quantified by ELISA.
Efficacy was determined at each time point as percent inhibition of serum TNF levels relative to LPS injected mice that received vehicle only.
In vivo assessment of the ability of the compounds to inhibit LPS-stimulated TNP release in the mouse is shown in the column identified as: • “Mouse LPS Model, % TNF inhib @ dose @ predose time” wherein in the dose is milligram per kilogram (mpk) administered by oral gavage and the predose time indicates the number of hours before LPS challenge when the compound is administered.

[4] = test system: TNF-α, rats challenged with LPS; assay: Rat assay, LPS-stimulated TNF release; type: in vivo; conditions: for inhibition in vivo at 3 mg/kg / Rat LPS Model % inhib @ dose @ predose time: 3 mpk oral gavage, −4 h before LPS challenge; for inhibition in vivo at 3 mg/kg: read-out: Rat LPS Model % inhib @ dose @ predose time
Method: The efficacy of the novel compounds in blocking the production of TNF also was evaluated using a model based on rats challenged with LPS. Male Harlen Lewis rats [Sprague Dawley Co.] were used in this model. Each rat weighed approximately 300 g and was fasted overnight prior to testing. Compound administration was typically by oral gavage (although intraperitoneal, subcutaneous and intravenous administration were also used in a few instances) 1 to 24 hours prior to the LPS challenge. Rats were administered 30 μg/kg LPS [salmonella typhosa, Sigma Co.] intravenously via the tail vein. Blood was collected via heart puncture 1 hour after the LPS challenge. Serum samples were stored at −20° C. until quantitative analysis of TNF-α by Enzyme Linked-Immuno-Sorbent Assay (“ELISA”) [Biosource]. Additional details of the assay are set forth in Perretti, M., et al., Br. J. Pharmacol. (1993), 110, 868-874, which is incorporated by reference in this application.
In vivo assessment of the ability of the compounds to inhibit LPS-stimulated TNF release in the rat is shown in the column identified as: • “Rat LPS Model, % TNF inhib dose @ predose time” wherein in the dose is milligram per kilogram (mpk) administered by oral gavage and the predose time indicates the number of hours before LPS challenge when the compound is administered.
In vivo assessment of the ability of the compounds to inhibit LPS-stimulated TNF release in the rat is shown in the column identified as: • “Rat LPS Model % Inhibition@dose@predose time” wherein the dose is milligram per kilogram (mpk) administered by oral gavage and the predose time indicates the number of hours before LPS challenge when the compound is administered.
as §1

human p38 kinase alpha = biological target: T1, human p38 kinase alpha (Homo sapiens, UniProt Q16539); assay: p38 kinase in vitro assay, phosphorylation of biotinylated PHAS-I with 32P-ATP; type: biochemical; conditions: for IC50: read-out: P38 alpha kinase IC50; for P38 alpha kinase % inhib @ conc. (uM): @ 1.0 uM
T1 construct: GST (N, cleaved yes); made in house; host or cells: E. coli DH10B

[5] = Table 6, U937 cell assay, read-out: U937 IC50
[6] = in vitro P38-alpha kinase inhibition
[7] = TNF production, human U937 cells stimulated with LPS, read-out: U937 Cell IC50
[8] = Homo sapiens, U-937, TNF production, human U937 cells stimulated with LPS, read-out: U937 Cell IC50
[9] = predose time not printed ("@ -")

T1 sequence (Q16539 whole entry): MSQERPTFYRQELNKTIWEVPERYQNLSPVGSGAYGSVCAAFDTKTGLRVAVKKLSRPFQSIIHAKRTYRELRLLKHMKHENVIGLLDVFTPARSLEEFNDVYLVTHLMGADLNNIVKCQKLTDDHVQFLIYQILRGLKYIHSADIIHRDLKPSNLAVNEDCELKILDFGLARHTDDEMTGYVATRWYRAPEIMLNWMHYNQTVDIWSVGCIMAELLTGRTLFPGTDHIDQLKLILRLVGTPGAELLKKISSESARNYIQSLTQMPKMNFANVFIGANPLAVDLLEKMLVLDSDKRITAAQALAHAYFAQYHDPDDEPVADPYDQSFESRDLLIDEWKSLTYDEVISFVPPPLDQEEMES

5-[2-(1,1-DIMETHYL)AMINOETHYL]-4-(4-PYRIDYL)-3-(4-FLUOROPHENYL)PYRAZOLE [Example C-114]
IC50 ([1]; TNF production, human whole blood stimulated with LPS, read-out: Human Whole Blood IC50, μM or % Inhib @ conc. (μM): IC50): 1.73 µM

Clc1ccc(-c2n[nH]c(SC3CCNCC3)c2-c2ccncc2)cc1 [A-459 (salt)]
IC50 ([1]; Table 10, read-out: TNF Inhibition-Human Whole Blood Assay): 0.28 µM

CCn1nc(C)c(-c2ccncc2)c1-c1ccc(Cl)cc1 [Example A-207, 4-[3-(4-chlorophenyl)-2-ethyl-5-methyl-1H-pyrazol-4-yl]pyridine]
melting point: 153.46 °C

Fc1ccc(CNc2cc(-c3cn(CCN4CCOCC4)nc3-c3ccc(F)cc3)ccn2)cc1 [Example A-276, N-[(4-fluorophenyl)methyl]-4-[3(or 5)-(4-fluorophenyl)-1-[[2-(4-morpholinyl)ethyl]-1H-pyrazol-4-yl]-2-pyridinamine]
IC50 [2, 5]: 450 nM
mLPS 8 h percent inhibition [3]: −24%

OCCn1cc(-c2ccnc(NCc3ccc(F)cc3)c2)c(-c2ccc(F)cc2)n1 [Example A-283, 3 (or 5)-(4-fluorophenyl)-4-[2-[[(4-fluorophenyl)methyl]amino]-4-pyridinyl]-1H-pyrazole-1-ethanol]
IC50 [2, 5]: 800 nM
mLPS 8 h percent inhibition [3]: −20%

Fc1ccc(CNc2cc(-c3cn(CCN4CCOCC4)nc3-c3ccc(F)cc3)ccn2)cc1 [Example A-285, N-[(4-fluorophenyl)methyl]-4-[3-(4-fluorophenyl)-1-[2-(4-morpholinyl)ethyl]-1H-pyrazol-4-yl]-2-pyridinamine]
IC50 [2, 5]: 180 nM
mLPS 8 h percent inhibition [3]: 11%

OCCn1cc(-c2ccnc(NCc3ccc(F)cc3)c2)c(-c2ccc(F)cc2)n1 [Example A-289, 3-(4-fluorophenyl)-4-[2-[[(4-fluorophenyl)methyl]amino]-4-pyridinyl]-1H-pyrazole-1-ethanol]
IC50 [2, 5]: 140 nM
mLPS 8 h percent inhibition [3]: 44%

Clc1ccc(-c2n[nH]cc2-c2ccncn2)cc1 [Example A-310, 4-[3-(4-chlorophenyl)-1H-pyrazol-4-yl]pyrimidine]
melting point: 218.17 °C

COc1ccc(-n2nc(-c3ccc(F)cc3)c(-c3ccncc3)c2-c2cnc[nH]2)cc1 [Example A-323, 4-[3-(4-fluorophenyl)-5-(1H-imidazol-4-yl)-1-(4-methoxyphenyl)-1H-pyrazol-4-yl]pyridine]
inhibition in vivo at 30 mg/kg ([4]; Rattus norvegicus, po, read-out: Rat LPS Assay % Inhibition, Table 8, dose 30.0 mg/kg): 40%
melting point: 124 to 126 °C

O=C(C(=C1SCS1)c1ccncc1)c1ccc(OC(F)(F)F)cc1 [Example A-395]
melting point: 182.6 to 183 °C

N#Cc1ccc(C(=O)C(=C2SCS2)c2ccncc2)cc1 [Example A-396]
melting point: 193.3 to 193.4 °C

Clc1ccc(-c2n[nH]c(SCCN3CCCC3)c2-c2ccncc2)cc1 [Example A-460]
melting point: 189.9 to 190.1 °C

O=C(O)C(Cc1cnc[nH]1)Sc1[nH]nc(-c2ccc(Cl)cc2)c1-c1ccncc1 (centres unmarked) [Example A-471]
melting point: 163 to 165 °C

CC(C)C(=O)NC(C)c1[nH]nc(-c2ccc(F)cc2)c1-c1ccncc1 (centres unmarked) [Example B-0532]
IC50 ([2]; Homo sapiens, U-937, TNF production in human U937 cells stimulated with LPS, read-out: U937 Cell IC50): 1010 nM
IC50 (human p38 kinase alpha; [6]): 450 nM
inhibition in vivo at 30 mg/kg ([3]; −6 h before LPS challenge): 41%

COc1ccc(S(=O)(=O)NC(C)c2[nH]nc(-c3ccc(F)cc3)c2-c2ccncc2)cc1 (centres unmarked) [Example B-0574]
inhibition in vivo at 3 mg/kg ([4]; Rattus norvegicus, po): 37%

Cc1ccc(S(=O)(=O)NC(C)c2[nH]nc(-c3ccc(F)cc3)c2-c2ccncc2)cc1 (centres unmarked) [Example B-0576]
inhibition in vivo at 3 mg/kg ([4]; Rattus norvegicus, po): 65%
IC50 (human p38 kinase alpha; [6]): 68 nM

CC(NC(=O)C(C)(C)C)c1[nH]nc(-c2ccc(F)cc2)c1-c1ccncc1 (centres unmarked) [Example B-0601]
inhibition in vivo at 3 mg/kg ([4]; Rattus norvegicus, po): 43%
IC50 (human p38 kinase alpha; [6]): 89 nM

CC(NS(=O)(=O)c1cccc(Cl)c1)c1[nH]nc(-c2ccc(F)cc2)c1-c1ccncc1 (centres unmarked) [Example B-0639]
inhibition in vivo at 3 mg/kg ([4]; Rattus norvegicus, po): 50%
IC50 (human p38 kinase alpha; [6]): 51 nM

CC(NS(=O)(=O)c1ccc(Cl)s1)c1[nH]nc(-c2ccc(F)cc2)c1-c1ccncc1 (centres unmarked) [Example B-0650]
inhibition in vivo at 3 mg/kg ([4]; Rattus norvegicus, po): 8%
IC50 (human p38 kinase alpha; [6]): 6 nM

CC(=O)OCC(=O)NCCCc1[nH]nc(-c2ccc(F)cc2)c1-c1ccncc1 [Example B-1158]
IC50 [2, 7]: 680 nM
P38 alpha kinase % inhib @ conc. (uM) (human p38 kinase alpha): 74% @
Mouse LPS Model % TNF inhib @ dose @ predose time ([3]; −6 h before LPS challenge): 53% @ 30 mpk @ −6 h

O=C(NCCCc1[nH]nc(-c2ccc(F)cc2)c1-c1ccncc1)c1ccccc1I [Example B-1159]
P38 alpha kinase % inhib @ conc. (uM) (human p38 kinase alpha): 66.0% @
Mouse LPS Model % TNF inhib @ dose @ predose time ([3]; −6 h before LPS challenge): 60% @ 30 mpk @ −6 h

O=C(NCCCc1[nH]nc(-c2ccc(F)cc2)c1-c1ccncc1)c1ccc(F)cc1 [Example B-1161]
Rat LPS Model % inhib @ dose @ predose time [4]: 45% @ 3 mpk @ −4 h
P38 alpha kinase % inhib @ conc. (uM) (human p38 kinase alpha): 64.0% 2
Mouse LPS Model % TNF inhib @ dose @ predose time ([3]; −6 h before LPS challenge): 40% @ 30 mpk @ −6 h

C=CCOC(=O)NCCCc1[nH]nc(-c2ccc(F)cc2)c1-c1ccncc1 [Example B-1162]
IC50 [2, 7]: 590 nM
P38 alpha kinase % inhib @ conc. (uM) (human p38 kinase alpha): 79.0% @
Mouse LPS Model % TNF inhib @ dose @ predose time ([3]; −6 h before LPS challenge): 40% @ 30 mpk @ −6 h

O=C(NCCCc1[nH]nc(-c2ccc(F)cc2)c1-c1ccncc1)C1CC1 [Example B-1166]
Rat LPS Model % inhib @ dose @ predose time [4]: 50% @ 3 mpk @ −4 h
P38 alpha kinase % inhib @ conc. (uM) (human p38 kinase alpha): 77.0% @
Mouse LPS Model % TNF inhib @ dose @ predose time ([3]; −6 h before LPS challenge): 50% @ 30 mpk @ −6 h

O=C(c1ccc(F)cc1)N1CCC(c2[nH]nc(-c3ccc(F)cc3)c2-c2ccncc2)CC1 [Example B-1360]
inhibition in vivo at 3 mg/kg ([4]; Rattus norvegicus, po): 54%

CC(=O)N1CCC(c2[nH]nc(-c3ccc(F)cc3)c2-c2ccncc2)CC1 [Example B-1363]
Rat LPS Model % inhib @ dose @ predose time [4]: 53% @ 3 mpk @ −4 h
IC50 (human p38 kinase alpha; in vitro P38-alpha kinase): 9 nM
Mouse LPS Model % TNF inhib @ dose @ predose time ([3]; −6 h before LPS challenge): 51.0% @ 30 pmk @

O=C(C1CC1)N1CCC(c2[nH]nc(-c3ccc(F)cc3)c2-c2ccncc2)CC1 [Example B-1364]
IC50 [2, 8]: 270 nM
inhibition in vivo at 3 mg/kg ([4]; Rattus norvegicus, po): 17%
IC50 (human p38 kinase alpha; in vitro P38-alpha kinase): 9 nM
inhibition in vivo at 30 mg/kg ([3]; −6 h before LPS challenge): 53%

COCC(=O)N1CCC(c2[nH]nc(-c3ccc(F)cc3)c2-c2ccncc2)CC1 [Example B-1368]
IC50 (human p38 kinase alpha; in vitro P38-alpha kinase): 31 nM
inhibition in vivo at 30 mg/kg [3, 9]: 44%

O=C(c1ccccc1F)N1CCC(c2[nH]nc(-c3ccc(F)cc3)c2-c2ccncc2)CC1 [Example B-1372]
IC50 [2, 8]: 410 nM
IC50 (human p38 kinase alpha; in vitro P38-alpha kinase): < 100 nM
inhibition in vivo at 30 mg/kg [3, 9]: 48%

CS(=O)(=O)N1CCC(c2[nH]nc(-c3ccc(F)cc3)c2-c2ccncc2)CC1 [Example B-1376]
IC50 (human p38 kinase alpha; in vitro P38-alpha kinase): 9 nM
Mouse LPS Model % TNF inhib @ dose @ predose time ([3]; −6 h before LPS challenge): 3.0% @ 30 mpk @ −6 H
